# How the values were obtained:
# Streptococcus pyogenes = assay: In vitro antibacterial activity against Streptococcus pyogenes 77A; assay type: functional
# Staphylococcus aureus = assay: In vitro antibacterial activity against Staphylococcus aureus SG 511; assay type: functional
# Pseudomonas aeruginosa [1] = assay: In vitro antibacterial activity against Pseudomonas aeruginosa 1592E; assay type: functional
# Salmonella typhimurium = assay: In vitro antibacterial activity against Salmonella Typhimurium; assay type: functional, Salmonella enterica subsp. enterica serovar Typhimurium
# Pseudomonas aeruginosa [2] = assay: In vitro antibacterial activity against Pseudomonas aeruginosa 1771M; assay type: functional
# Enterococcus faecium = assay: In vitro antibacterial activity against Streptococcus faecium MD 8b; assay type: functional
# Enterobacter cloacae = assay: In vitro antibacterial activity against Enterobacter cloacae 1321E; assay type: functional
# Klebsiella aerogenes = assay: In vitro antibacterial activity against Klebsiella aerogenes 1522E; assay type: functional
# Escherichia coli [3] = assay: In vitro antibacterial activity against Escherichia coli 078; assay type: functional
# Escherichia coli [4] = assay: In vitro antibacterial activity against Escherichia coli 1507E; assay type: functional
# [5] = target: T1, Dipeptidase 1 (Sus scrofa) (UniProt P22412); assay: Relative hydrolysis to meropenem by partially purified porcine renal Dehydropeptidase-1 was reported.; design: scale not given: the % may be the effect or the level left
# T1 sequence (whole entry): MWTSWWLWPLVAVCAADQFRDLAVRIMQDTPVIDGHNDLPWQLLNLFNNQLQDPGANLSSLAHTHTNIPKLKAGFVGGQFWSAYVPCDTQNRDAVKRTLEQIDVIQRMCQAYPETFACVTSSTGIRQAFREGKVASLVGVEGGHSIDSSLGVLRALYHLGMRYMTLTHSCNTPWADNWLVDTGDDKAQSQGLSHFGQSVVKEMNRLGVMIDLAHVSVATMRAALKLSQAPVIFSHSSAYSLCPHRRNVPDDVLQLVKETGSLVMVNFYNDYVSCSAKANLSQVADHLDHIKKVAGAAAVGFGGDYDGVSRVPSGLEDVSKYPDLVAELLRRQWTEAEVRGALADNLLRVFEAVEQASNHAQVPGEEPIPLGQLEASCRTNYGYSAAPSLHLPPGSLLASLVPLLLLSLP
# Mus musculus [6] = assay: In vivo therapeutic efficacy was determined against Escherichia coli 078 by a single sc administration in mice; assay type: functional; settings: read-out: PD50
# Mus musculus [7] = assay: In vivo therapeutic efficacy was determined against Streptococcus pyogenes 77A by a single sc administration in mice; assay type: functional; settings: read-out: PD50
# Mus musculus [8] = assay: In vivo therapeutic efficacy was determined against Staphylococcus aureus Y-80-1953 by a single sc administration in mice; assay type: functional; settings: read-out: PD50
# [9] = Half life was determined in mice at a single subcutaneous administration of 40 mg/kg (n=4); assay type: ADME, organism-based; design: dose 40 mg/kg, route subcutaneous; settings: mouse, in vivo, sc
# [10] = Maximum time was determined in mice at a single subcutaneous administration of 40 mg/kg (n=4); assay type: ADME, organism-based; design: dose 40 mg/kg, route subcutaneous; settings: mouse, in vivo, sc
# [11] = Area under curve (AUC) was determined in mice at a single subcutaneous administration of 40 mg/kg (n=4); assay type: ADME, organism-based; design: dose 40 mg/kg, route subcutaneous; settings: mouse, in vivo, sc
# [12] = Maximum plasma concentration was determined in mice at a single subcutaneous administration of 40 mg/kg (n=4); assay type: ADME, organism-based; design: dose 40 mg/kg, route subcutaneous; settings: mouse, sc
# Mus musculus [13] = assay: In vivo therapeutic efficacy was determined against Pseudomonas aeruginosa 1771M by a single sc administration in mice; assay type: functional; settings: read-out: PD50
# [14] = Streptococcus pyogenes, read-out: MIC
# [15] = Staphylococcus aureus, read-out: MIC
# [16] = Pseudomonas aeruginosa, read-out: MIC
# [17] = Salmonella enterica, read-out: MIC
# [18] = Enterococcus faecium, read-out: MIC
# [19] = Enterobacter cloacae, read-out: MIC
# [20] = Klebsiella aerogenes, read-out: MIC
# [21] = Escherichia coli, read-out: MIC
Structure (SMILES),MIC (Streptococcus pyogenes; [14]),MIC (Staphylococcus aureus; [15]),MIC (Pseudomonas aeruginosa [1]; [16]),MIC (Salmonella typhimurium; [17]),MIC (Pseudomonas aeruginosa [2]; [16]),MIC (Enterococcus faecium; [18]),MIC (Enterobacter cloacae; [19]),MIC (Klebsiella aerogenes; [20]),MIC (Escherichia coli [3]; [21]),MIC (Escherichia coli [4]),Stability [5],also measured
C[C@@H](O)[C@H]1C(=O)N2C(C(=O)O)=C(S[C@H]3CN[C@H](C(=O)N4C[C@@H](O)[C@H](O)C4)C3)[C@H](C)[C@H]12,0.013 µg/mL,0.195 µg/mL,100 µg/mL,0.391 µg/mL,0.391 µg/mL,12.5 µg/mL,0.195 µg/mL,0.195 µg/mL,0.098 µg/mL,0.195 µg/mL,,
C[C@@H](O)[C@H]1C(=O)N2C(C(=O)O)=C(S[C@@H]3CN[C@H](C(=O)N4C[C@H](OC(N)=O)[C@@H](OC(N)=O)C4)C3)[C@H](C)[C@H]12,0.025 µg/mL,0.195 µg/mL,0.781 µg/mL,0.049 µg/mL,0.391 µg/mL,6.25 µg/mL,0.025 µg/mL,0.049 µg/mL,0.025 µg/mL,0.025 µg/mL,53%,
CC(=O)O[C@@H]1CN(C(=O)[C@@H]2C[C@H](SC3=C(C(=O)O)N4C(=O)[C@H]([C@@H](C)O)[C@H]4[C@H]3C)CN2)C[C@H]1OC(C)=O,0.007 µg/mL,0.195 µg/mL,0.098 µg/mL,0.049 µg/mL,0.098 µg/mL,6.25 µg/mL,0.013 µg/mL,0.049 µg/mL,0.013 µg/mL,0.025 µg/mL,50%,
C[C@@H](O)[C@H]1C(=O)N2C(C(=O)O)=C(S[C@H]3CN[C@H](C(=O)N4C[C@H](O)[C@@H](O)C4)C3)[C@H](C)[C@H]12,0.025 µg/mL,0.195 µg/mL,100 µg/mL,0.195 µg/mL,0.781 µg/mL,25 µg/mL,0.195 µg/mL,0.195 µg/mL,0.098 µg/mL,0.098 µg/mL,,
CC(=O)O[C@H]1CN(C(=O)[C@@H]2C[C@H](SC3=C(C(=O)O)N4C(=O)[C@H]([C@@H](C)O)[C@H]4[C@H]3C)CN2)C[C@@H]1OC(C)=O (stereo in doubt; 1a) [listing 1 of 2 here],0.007 µg/mL,0.098 µg/mL,,0.049 µg/mL,0.098 µg/mL,6.25 µg/mL,0.013 µg/mL,0.049 µg/mL,0.013 µg/mL,0.025 µg/mL,,ED50 (Mus musculus [6]): 0.94 mg/kg; MIC (Pseudomonas aeruginosa [1]): 0.195 µg/mL; ED50 (Mus musculus [7]): 4.79 mg/kg; ED50 (Mus musculus [8]): 2.18 mg/kg; half-life [9]: 15 min; Tmax [10]: 10.2 min; AUC [11]: 6830 ng·h/mL; Cmax [12]: 16600 ng/mL; ED50 (Mus musculus [13]): 3.93 mg/kg
CC(=O)O[C@H]1CN(C(=O)[C@@H]2C[C@H](SC3=C(C(=O)O)N4C(=O)[C@H]([C@@H](C)O)[C@H]4[C@H]3C)CN2)C[C@@H]1OC(C)=O (stereo in doubt; 1a) [listing 2 of 2 here],,,,,,,,,,,63%,
CC(=O)O[C@H]1CN(C(=O)[C@@H]2C[C@H](SC3=C(C(=O)O)N4C(=O)[C@H]([C@@H](C)O)[C@H]4[C@H]3C)CN2)C[C@@H]1OC(C)=O (stereo in doubt; 1f) [listing 1 of 2 here],,,,,,,,,,,,MIC (Streptococcus pyogenes): 0.007 µg/mL; MIC (Staphylococcus aureus): 0.195 µg/mL; MIC (Pseudomonas aeruginosa [1]): 1.563 µg/mL; MIC (Salmonella typhimurium): 0.049 µg/mL; MIC (Pseudomonas aeruginosa [2]): 0.195 µg/mL; MIC (Enterococcus faecium): 6.25 µg/mL; MIC (Enterobacter cloacae): 0.013 µg/mL; MIC (Klebsiella aerogenes): 0.049 µg/mL; MIC (Escherichia coli [3]): 0.025 µg/mL
CC(=O)O[C@H]1CN(C(=O)[C@@H]2C[C@H](SC3=C(C(=O)O)N4C(=O)[C@H]([C@@H](C)O)[C@H]4[C@H]3C)CN2)C[C@@H]1OC(C)=O (stereo in doubt; 1f) [listing 2 of 2 here],,,,,,,,,,,66%,
C[C@@H](O)[C@H]1C(=O)N2C(C(=O)O)=C(SCCNC=N)C[C@H]12 [IMIPENEM ANHYDROUS],0.004 µg/mL,0.013 µg/mL,0.781 µg/mL,0.781 µg/mL,0.195 µg/mL,1.56 µg/mL,0.195 µg/mL,0.391 µg/mL,0.098 µg/mL,0.195 µg/mL,19%,
C[C@@H](O)[C@H]1C(=O)N2C(C(=O)O)=C(S[C@@H]3CN[C@H](C(=O)N(C)C)C3)[C@H](C)[C@H]12 [MEROPENEM],0.002 µg/mL,0.098 µg/mL,0.195 µg/mL,0.025 µg/mL,0.049 µg/mL,12.5 µg/mL,0.025 µg/mL,0.049 µg/mL,0.013 µg/mL,0.025 µg/mL,100%,ED50 (Mus musculus [6]): 0.65 mg/kg; ED50 (Mus musculus [7]): 4.55 mg/kg; ED50 (Mus musculus [8]): 11.1 mg/kg; half-life [9]: 16.2 min; Tmax [10]: 10.2 min; AUC [11]: 6860 ng·h/mL; Cmax [12]: 15600 ng/mL; ED50 (Mus musculus [13]): 4.26 mg/kg

# — ChEMBL document CHEMBL1131843, “Synthesis and biological evaluation of novel 1beta-methylcarbapenems having a new moiety at C-2” (Bioorg Med Chem Lett, 1999)
